Source: patent US7863315B2, “2-indolinone derivatives as selective histone deacetylase inhibitors” (Shenzhen Chipscreen Biosciences, Ltd., priority 2008, dated 2011)

Experiments:
Format in all cases: cell-based
[1] = test system: HL60 human leukemia cell line; assay: Anti-cell proliferation (MTS), HL60; conditions: HL-60, 72 hours
Method: (§1) Measurement of in vivo cell proliferation:
(§2) Tumor cells were trypsinized and plated into 96-well plates at 3,000 per well and incubated in complete medium with 10% FBS for 24 hours. Compounds were added over a final concentration range of 100 μmol/L to 100 nmol/L in 0.1% DMSO and incubated for 72 hours in complete medium. The effects on proliferation were determined by addition of MTS reagent (Promega) according to the instruction, incubation for 2 hours at 37° C. in CO2 incubator, and record the absorbance at 490 nm using an ELISA plate reader.

[2] = test system: HeLa human cervical cancer cell line; assay: Anti-cell proliferation (MTS), HeLa; conditions: 72 hours
Method: as §1, §2

[3] = test system: Hut-78 human T lymphoma cell line; assay: Anti-cell proliferation (MTS), Hut-78; conditions: HuT78, 72 hours
Method: as §1, §2

[4] = test system: A549 human lung cancer cell line; assay: Anti-cell proliferation (MTS), A549; conditions: 72 hours
Method: as §1, §2

[5] = target: T1, HDAC6 (α-tubulin acetylation) (Homo sapiens, UniProt Q9UBN7); assay: ELISA assay of acetylation of α-tubulin in HeLa cells; conditions: M-HeLa, 24 hours
T1 construct: endogenous in cells; host or cells: HeLa
T1 sequence (Q9UBN7 1-1215): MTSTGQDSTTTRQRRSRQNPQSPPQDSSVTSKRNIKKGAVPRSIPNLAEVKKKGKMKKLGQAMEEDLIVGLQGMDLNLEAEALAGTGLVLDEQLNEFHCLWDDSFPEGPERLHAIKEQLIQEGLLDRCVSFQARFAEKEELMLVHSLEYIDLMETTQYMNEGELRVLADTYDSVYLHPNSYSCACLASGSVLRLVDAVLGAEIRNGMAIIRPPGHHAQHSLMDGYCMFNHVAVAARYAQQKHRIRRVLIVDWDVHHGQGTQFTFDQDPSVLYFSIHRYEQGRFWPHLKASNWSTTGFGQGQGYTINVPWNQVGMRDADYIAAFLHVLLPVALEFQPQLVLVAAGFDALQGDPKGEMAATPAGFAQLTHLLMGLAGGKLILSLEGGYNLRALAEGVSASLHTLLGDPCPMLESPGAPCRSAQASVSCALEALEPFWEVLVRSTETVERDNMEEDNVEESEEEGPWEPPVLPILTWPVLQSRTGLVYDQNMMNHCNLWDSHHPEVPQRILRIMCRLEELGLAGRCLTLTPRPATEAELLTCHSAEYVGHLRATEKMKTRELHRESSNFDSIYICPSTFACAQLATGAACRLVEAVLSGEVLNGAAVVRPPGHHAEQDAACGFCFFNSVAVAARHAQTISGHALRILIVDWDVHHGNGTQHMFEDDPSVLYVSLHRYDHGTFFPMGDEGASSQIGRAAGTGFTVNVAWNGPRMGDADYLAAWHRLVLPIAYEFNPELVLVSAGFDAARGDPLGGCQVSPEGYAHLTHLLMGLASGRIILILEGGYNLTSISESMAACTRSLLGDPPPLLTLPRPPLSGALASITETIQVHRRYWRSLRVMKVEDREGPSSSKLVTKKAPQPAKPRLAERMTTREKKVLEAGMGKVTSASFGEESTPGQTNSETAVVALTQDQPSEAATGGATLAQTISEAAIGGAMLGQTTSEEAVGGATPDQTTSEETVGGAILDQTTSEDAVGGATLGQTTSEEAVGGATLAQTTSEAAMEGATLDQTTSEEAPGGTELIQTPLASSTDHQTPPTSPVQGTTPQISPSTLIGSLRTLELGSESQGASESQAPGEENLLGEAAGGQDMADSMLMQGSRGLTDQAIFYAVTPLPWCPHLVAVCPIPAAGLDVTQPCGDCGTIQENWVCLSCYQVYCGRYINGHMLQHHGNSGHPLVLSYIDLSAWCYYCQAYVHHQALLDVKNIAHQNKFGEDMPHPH
Method: Measurement of acetylation activity in cells on substrates:
ELISA assay of acetylation of α-tubulin
This assay is used to measure in vivo inhibition of HDAC6 in a cytoblot assay. Materials and Reagent: • 1. 24-well tissue culture • 2. DMEM Medium containing 10% FBS • 3. 96-well white plate • 4. HeLa cell line • 5. M-PER Mammalian Protein Extraction Reagent (Pierce) • 6. Bradford assay reagent • 7. Anti-acetyl-tubulin (Upstate) • 8. HRP-labeled anti-mouse IgG (Upstate) • 9. Coating Buffer: 15 mM Na2CO3, 35 mM NaHCO3 (pH 9.6) • 10. 10×PBS: 0.58 M Na2HPO4, 0.17M NaH2PO4, 0.68M NaCl (pH 7.4) • 11. Wash Buffer:1×PBS containing 0.05% Tween-20 (PBST) • 12. Blocking Buffer:10 mg/ml bocine serum albumin (BSA) in PBS • 13. Antibody Dilution Buffer: 5 mg/ml BSA in PBST • 14. Enhanced chemiluminescence (ECL) (Amersham)
Procedure for performing the assay in 96-well plate: • 1. HeLa cells were seeded at a density of 60000 cells/500 μl/well in 24-well plate and incubated at 37° C. for 24 hours. • 2. Compounds were added and incubated for 24 hours at 37° C. • 3. Culture medium was removed, then washes the cells twice with ice-cold PBS. • 4. Add 100 μl/well of Protein Extraction Reagent and gently shake the mixture for 5 minutes. • 5. Collect the lysate to a 96-well plate respectively. Determine the concentration of protein by Bradford assay. • 6. Coat the wells of a 96-well white plate with 100 μl/well of 2.5 μg whole cell protein in Coating Buffer by incubating overnight at 4° C. • 7. Discard the uncoated proteins and wash the coated wells three times with 200 μl/well of PBST. • 8. Block coated wells by incubating the plate with 200 μl/well of Blocking Buffer for 1 hour at 37° C. • 9. Wells were aspirated and washed three times with 200 μl/well of PBST. • 10. After aspirating, 50 μl/well of Antibody Dilution Buffer containing anti-Ac-tubulin (1:1000) were added to each well and incubated for 2 hour at 37° C. • 11. Wells were aspirated and washed three times with 200 μl/well of PBST. • 12. 50 μl/well of Antibody Dilution Buffer containing HRP-labeled anti-mouse IgG (1:2000) were added to each well and incubated for 2 hour at 37° C. • 13. Wells were aspirated and washed three times with 200 μl/well of PBST. • 14. Wells were washed three times with 200 μl/well of purified water. • 15. Add 50 μl/well of ECL mixture, then read the plates on the plate reader.

Structure (SMILES)	GI50 [1]	GI50 [2]	GI50 [3]	GI50 [4]	fold induction at 10 µM [5]
Nc1cc(F)ccc1NC(=O)CCCCCCCNC(=O)c1ccc(/C=N/N=C2\C(=O)Nc3ccc(F)cc32)cc1 [Example 36, 8-(4-(((5-fluoro-2-oxoindolin-3-ylidene)hydrazono)methyl)benzamido)-N-(2-amino-4-fluorophenyl)octanamide]	14.8 µM	55 µM	10.7 µM	30.2 µM	1.57
Nc1cc(F)ccc1NC(=O)CCCCCNC(=O)c1ccc(/C=C2\C(=O)Nc3ccc(F)cc32)cc1 [Example 40, 6-(4-((5-fluoro-2-oxoindolin-3-ylidene)methyl)benzamido)-N-(2-amino-4-fluorophenyl)hexanamide]	5.75 µM	33.9 µM	4.17 µM	36.3 µM	1.04
O=C(CCCCCCCNC(=O)c1cccc(/C=C2\C(=O)Nc3ccc(F)cc32)c1)NO [Example 56, 8-(3-((5-fluoro-2-oxoindolin-3-ylidene)methyl)benzamido)-N-hydroxyoctanamide]	5.62 µM	17.4 µM	4.57 µM	28.8 µM	2.66

These reach a lower GI50 [1]. Values come first.

GI50 [1]	GI50 [2]	GI50 [3]	GI50 [4]	fold induction at 10 µM [5]	Structure (SMILES)
4.17 µM	22.9 µM	4.17 µM	28.8 µM	0.93	Nc1ccccc1NC(=O)CCCCCNC(=O)c1ccc(/C=C2\C(=O)Nc3ccc(F)cc32)cc1 [Example 39, 6-(4-((5-fluoro-2-oxoindolin-3-ylidene)methyl)benzamido)-N-(2-aminophenyl)hexanamide]
3.98 µM	20.9 µM	6.76 µM	35.5 µM	1.97	Nc1cc(F)ccc1NC(=O)CCCCNC(=O)c1cccc(/C=C2\C(=O)Nc3ccc(F)cc32)c1 [Example 50, 5-(3-((5-fluoro-2-oxoindolin-3-ylidene)methyl)benzamido)-N-(2-amino-4-fluorophenyl)pentanamide]
2.95 µM	11 µM	4.37 µM	19.5 µM	2.66	Nc1ccccc1NC(=O)CCCCCNC(=O)c1cccc(/C=C2\C(=O)Nc3ccc(F)cc32)c1 [Example 44, 6-(3-((5-fluoro-2-oxoindolin-3-ylidene)methyl)benzamido)-N-(2-aminophenyl)hexanamide]
2.46 µM	18.2 µM	3.89 µM	24 µM	2.91	Nc1ccccc1NC(=O)CCCCCCCNC(=O)c1cccc(/C=C2\C(=O)Nc3ccc(F)cc32)c1 [Example 54, 8-(3-((5-fluoro-2-oxoindolin-3-ylidene)methyl)benzamido)-N-(2-aminophenyl)octanamide]
